Holding throughout (experiment): Protein kinase panel
What all share (format): biochemical

One test deals with Flt1 (Homo sapiens, UniProt P17948). From the text:
(§1) Purified recombinant AXL kinase was used to screen a library of structures with appropriate drug-like scaffolds to identify potential inhibitors. Hits from the screen were confirmed and r analyzed by selection criteria including Lipinski rules. One pyrrolopyrimidine-based compound was selected for structure-activity relationship efforts. Optimization of this scaffold and subsequent evaluation led to the generation of compound SG1-7079 as the lead candidate inhibitor (FIG. 10). […] SGI-7079 was screened against a panel of protein kinases to determine both selectivity and biochemical potency.

The target of another test is T1, Flt3 (Homo sapiens, UniProt P36888).
T1 sequence (P36888 27-993): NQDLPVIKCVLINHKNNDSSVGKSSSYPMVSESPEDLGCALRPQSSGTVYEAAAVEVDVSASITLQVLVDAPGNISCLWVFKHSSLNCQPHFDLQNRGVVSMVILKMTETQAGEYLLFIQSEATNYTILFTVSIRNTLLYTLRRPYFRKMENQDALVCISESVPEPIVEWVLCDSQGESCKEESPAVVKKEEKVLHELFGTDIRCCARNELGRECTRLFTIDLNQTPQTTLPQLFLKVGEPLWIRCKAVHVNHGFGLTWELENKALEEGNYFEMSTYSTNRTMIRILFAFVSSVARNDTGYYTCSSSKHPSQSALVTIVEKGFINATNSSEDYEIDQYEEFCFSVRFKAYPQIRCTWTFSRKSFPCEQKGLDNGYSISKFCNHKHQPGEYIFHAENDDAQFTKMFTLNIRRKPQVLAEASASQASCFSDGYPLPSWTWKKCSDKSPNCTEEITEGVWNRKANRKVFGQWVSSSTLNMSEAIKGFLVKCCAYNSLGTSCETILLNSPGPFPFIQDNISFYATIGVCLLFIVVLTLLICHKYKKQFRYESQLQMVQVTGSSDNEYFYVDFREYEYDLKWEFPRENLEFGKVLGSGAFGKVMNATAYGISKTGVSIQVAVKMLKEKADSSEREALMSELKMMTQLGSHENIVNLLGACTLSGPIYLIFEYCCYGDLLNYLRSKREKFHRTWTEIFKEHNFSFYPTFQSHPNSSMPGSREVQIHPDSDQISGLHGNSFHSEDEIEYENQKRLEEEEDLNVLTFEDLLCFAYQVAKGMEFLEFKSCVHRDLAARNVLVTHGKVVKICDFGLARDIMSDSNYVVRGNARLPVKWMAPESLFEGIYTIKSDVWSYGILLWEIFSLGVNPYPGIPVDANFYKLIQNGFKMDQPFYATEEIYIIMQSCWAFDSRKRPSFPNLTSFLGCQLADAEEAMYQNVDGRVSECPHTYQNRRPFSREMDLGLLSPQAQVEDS
Source text: as §1

The target of a further test is Jak2 (Homo sapiens, UniProt O60674).
Source text: as §1

In the next test the target is T2, MER (Homo sapiens, UniProt Q12866).
T2 sequence (Q12866 21-999): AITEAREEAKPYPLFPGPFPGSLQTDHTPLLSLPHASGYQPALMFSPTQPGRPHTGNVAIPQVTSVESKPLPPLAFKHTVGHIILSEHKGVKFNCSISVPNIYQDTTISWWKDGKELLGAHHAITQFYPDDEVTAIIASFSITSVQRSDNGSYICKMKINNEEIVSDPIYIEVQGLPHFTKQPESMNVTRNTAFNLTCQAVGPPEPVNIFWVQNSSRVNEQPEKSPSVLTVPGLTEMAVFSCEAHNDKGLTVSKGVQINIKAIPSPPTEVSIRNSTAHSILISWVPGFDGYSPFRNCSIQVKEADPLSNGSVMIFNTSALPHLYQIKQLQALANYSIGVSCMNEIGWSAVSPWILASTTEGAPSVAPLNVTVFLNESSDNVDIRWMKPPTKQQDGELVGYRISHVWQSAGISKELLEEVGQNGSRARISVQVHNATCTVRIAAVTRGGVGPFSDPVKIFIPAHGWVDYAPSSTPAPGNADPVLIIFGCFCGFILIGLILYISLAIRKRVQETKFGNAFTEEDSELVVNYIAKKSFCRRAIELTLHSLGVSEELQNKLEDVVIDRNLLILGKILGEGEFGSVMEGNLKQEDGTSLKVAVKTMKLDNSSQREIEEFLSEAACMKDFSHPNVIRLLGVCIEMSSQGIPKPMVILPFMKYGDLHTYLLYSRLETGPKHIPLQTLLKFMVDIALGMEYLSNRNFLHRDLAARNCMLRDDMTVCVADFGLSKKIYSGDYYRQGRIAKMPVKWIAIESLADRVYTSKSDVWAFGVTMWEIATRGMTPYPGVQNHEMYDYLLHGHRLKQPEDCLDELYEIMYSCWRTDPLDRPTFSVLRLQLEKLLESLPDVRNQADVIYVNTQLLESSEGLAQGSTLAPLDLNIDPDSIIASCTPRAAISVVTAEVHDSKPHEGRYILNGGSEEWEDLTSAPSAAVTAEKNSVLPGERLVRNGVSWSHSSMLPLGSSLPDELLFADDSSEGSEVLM
Source text: as §1

The target of a further test is PDGFRβ (Homo sapiens, UniProt P09619).
Source text: as §1

The target of a further test is Ret (Homo sapiens, UniProt P07949).
Source text: as §1

The target in a further test is Syk (Homo sapiens, UniProt P43405).
Source text: as §1

The next test has as its target TrkA (Homo sapiens, UniProt P04629).
Source text: as §1

In the next test the target is TrkB (Homo sapiens, UniProt Q16620).
Source text: as §1

Sequence of TrkB (Q16620 32-822, species assumed): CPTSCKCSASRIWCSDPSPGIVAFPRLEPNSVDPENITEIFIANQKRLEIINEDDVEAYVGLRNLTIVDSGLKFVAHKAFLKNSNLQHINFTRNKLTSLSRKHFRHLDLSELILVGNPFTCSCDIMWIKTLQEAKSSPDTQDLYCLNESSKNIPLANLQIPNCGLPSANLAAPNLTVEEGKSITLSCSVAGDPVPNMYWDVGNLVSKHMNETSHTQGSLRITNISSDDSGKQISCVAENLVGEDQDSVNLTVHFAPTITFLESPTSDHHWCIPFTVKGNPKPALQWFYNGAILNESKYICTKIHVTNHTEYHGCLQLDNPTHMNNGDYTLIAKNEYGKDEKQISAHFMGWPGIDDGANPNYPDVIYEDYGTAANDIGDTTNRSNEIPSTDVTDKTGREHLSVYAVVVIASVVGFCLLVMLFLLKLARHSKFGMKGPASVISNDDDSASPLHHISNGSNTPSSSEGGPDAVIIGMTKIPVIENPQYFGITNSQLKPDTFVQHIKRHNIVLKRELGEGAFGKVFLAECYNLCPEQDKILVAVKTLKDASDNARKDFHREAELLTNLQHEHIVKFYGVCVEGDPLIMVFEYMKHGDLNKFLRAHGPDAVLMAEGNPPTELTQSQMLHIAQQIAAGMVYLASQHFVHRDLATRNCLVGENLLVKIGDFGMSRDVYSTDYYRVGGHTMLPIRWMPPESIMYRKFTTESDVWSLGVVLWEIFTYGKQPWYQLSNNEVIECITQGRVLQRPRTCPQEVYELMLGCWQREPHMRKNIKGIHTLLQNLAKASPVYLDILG
Sequence of Jak2 (O60674 whole entry, species assumed): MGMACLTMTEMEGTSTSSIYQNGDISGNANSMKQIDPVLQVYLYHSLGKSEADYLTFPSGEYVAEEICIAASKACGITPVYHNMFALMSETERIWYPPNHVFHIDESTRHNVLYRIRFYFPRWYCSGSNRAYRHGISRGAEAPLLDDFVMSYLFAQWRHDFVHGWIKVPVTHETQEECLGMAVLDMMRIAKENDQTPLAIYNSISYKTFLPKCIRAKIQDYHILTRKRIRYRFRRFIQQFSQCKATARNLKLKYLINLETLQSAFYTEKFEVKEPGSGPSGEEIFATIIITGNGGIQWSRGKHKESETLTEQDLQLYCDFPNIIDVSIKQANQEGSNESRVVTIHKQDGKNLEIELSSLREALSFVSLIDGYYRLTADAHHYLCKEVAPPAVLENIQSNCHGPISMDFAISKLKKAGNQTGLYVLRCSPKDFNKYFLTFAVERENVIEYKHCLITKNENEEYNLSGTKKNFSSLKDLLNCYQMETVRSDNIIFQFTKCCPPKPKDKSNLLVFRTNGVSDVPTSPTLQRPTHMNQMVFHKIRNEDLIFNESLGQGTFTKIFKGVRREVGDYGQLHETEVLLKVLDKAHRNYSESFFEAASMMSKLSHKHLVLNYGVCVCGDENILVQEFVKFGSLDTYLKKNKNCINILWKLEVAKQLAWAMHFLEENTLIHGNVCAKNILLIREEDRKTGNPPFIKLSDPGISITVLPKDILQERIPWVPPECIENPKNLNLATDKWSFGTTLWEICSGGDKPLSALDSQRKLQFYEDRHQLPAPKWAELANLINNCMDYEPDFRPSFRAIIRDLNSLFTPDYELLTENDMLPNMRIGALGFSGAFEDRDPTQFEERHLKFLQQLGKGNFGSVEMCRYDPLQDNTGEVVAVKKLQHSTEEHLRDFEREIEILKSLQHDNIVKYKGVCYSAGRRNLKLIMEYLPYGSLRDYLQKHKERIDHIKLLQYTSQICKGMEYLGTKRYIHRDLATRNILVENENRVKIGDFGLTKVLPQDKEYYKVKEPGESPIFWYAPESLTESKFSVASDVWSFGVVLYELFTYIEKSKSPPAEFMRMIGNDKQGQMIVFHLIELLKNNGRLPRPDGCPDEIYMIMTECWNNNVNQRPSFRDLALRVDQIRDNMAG
Sequence of PDGFRβ (P09619 33-1106, species assumed): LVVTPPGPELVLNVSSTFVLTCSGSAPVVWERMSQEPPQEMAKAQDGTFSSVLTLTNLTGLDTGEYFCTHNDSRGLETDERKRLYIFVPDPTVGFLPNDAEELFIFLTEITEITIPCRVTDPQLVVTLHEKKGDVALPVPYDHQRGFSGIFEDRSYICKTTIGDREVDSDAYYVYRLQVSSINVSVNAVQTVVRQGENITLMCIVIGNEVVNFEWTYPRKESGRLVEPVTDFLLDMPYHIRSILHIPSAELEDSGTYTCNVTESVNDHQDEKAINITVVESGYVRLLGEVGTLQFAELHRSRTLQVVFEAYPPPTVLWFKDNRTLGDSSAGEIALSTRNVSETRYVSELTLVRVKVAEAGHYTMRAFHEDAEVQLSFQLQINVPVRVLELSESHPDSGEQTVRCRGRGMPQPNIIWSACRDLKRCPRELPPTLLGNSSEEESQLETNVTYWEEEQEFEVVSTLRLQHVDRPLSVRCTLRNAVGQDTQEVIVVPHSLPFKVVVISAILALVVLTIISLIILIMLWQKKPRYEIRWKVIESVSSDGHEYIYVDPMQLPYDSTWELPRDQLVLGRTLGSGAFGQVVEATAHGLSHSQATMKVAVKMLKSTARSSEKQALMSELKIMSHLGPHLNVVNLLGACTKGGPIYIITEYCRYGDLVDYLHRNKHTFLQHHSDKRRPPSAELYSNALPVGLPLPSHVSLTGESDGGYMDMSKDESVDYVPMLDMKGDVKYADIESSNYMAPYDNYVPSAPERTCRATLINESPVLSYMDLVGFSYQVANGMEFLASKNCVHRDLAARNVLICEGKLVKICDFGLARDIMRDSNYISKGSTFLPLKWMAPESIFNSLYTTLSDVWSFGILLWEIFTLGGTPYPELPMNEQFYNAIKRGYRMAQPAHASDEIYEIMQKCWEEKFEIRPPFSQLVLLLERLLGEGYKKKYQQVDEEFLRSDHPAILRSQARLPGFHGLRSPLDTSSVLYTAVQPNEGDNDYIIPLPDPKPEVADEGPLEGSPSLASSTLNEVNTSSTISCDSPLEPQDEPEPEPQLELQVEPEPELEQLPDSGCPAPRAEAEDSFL
Sequence of TrkA (P04629 33-796, species assumed): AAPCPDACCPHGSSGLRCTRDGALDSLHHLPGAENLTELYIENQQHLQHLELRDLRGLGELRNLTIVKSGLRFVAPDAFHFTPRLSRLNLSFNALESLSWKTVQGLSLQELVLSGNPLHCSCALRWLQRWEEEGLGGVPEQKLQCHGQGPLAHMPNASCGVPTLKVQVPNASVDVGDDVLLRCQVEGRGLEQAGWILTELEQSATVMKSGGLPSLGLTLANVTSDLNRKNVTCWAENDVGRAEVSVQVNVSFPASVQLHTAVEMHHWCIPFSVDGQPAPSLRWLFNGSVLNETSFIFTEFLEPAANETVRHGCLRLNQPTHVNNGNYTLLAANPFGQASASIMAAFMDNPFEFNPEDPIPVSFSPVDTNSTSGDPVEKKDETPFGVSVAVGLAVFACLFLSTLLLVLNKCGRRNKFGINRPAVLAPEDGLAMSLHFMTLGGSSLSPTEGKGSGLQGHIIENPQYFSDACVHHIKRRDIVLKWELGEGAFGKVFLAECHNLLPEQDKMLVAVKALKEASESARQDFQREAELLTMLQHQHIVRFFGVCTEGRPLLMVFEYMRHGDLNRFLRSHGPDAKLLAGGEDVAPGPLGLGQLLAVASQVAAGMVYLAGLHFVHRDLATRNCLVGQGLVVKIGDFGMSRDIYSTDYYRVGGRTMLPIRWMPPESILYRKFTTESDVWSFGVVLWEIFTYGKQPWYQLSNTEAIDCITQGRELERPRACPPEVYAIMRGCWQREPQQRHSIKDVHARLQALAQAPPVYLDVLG
Sequence of Flt1 (P17948 27-1338, species assumed): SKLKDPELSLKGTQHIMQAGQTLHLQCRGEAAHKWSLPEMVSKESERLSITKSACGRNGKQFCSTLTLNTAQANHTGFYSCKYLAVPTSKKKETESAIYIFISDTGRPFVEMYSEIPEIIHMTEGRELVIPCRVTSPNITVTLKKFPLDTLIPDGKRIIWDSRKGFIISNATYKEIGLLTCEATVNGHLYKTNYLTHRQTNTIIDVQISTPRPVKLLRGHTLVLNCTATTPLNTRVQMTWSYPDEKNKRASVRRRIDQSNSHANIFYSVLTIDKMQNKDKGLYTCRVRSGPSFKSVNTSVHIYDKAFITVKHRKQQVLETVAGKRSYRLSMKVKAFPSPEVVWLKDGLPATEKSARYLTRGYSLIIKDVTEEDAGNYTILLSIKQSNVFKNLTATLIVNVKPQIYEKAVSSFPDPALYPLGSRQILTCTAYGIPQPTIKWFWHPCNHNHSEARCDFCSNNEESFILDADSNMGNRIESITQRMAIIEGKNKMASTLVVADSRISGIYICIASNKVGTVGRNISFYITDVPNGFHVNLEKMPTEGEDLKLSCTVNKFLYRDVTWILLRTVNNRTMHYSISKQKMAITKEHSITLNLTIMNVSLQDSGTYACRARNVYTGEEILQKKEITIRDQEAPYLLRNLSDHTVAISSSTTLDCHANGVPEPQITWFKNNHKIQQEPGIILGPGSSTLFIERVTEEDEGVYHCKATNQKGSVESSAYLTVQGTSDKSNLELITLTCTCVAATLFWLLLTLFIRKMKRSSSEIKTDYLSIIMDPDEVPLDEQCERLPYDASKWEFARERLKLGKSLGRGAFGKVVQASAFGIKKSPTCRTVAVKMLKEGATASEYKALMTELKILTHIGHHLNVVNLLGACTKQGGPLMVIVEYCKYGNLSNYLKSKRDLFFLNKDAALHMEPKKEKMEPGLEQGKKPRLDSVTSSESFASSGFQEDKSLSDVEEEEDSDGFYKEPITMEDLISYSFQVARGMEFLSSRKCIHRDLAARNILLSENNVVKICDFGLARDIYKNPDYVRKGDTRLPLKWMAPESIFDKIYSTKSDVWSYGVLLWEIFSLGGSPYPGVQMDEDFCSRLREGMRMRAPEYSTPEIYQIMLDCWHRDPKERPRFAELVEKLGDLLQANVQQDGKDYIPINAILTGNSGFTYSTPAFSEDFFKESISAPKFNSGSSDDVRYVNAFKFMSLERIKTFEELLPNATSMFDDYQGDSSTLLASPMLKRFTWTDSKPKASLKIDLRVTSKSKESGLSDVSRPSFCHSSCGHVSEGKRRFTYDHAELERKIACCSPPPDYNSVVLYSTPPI

Consider `Cc1c[nH]c2nc(Nc3ccc(N4CCN(C)CC4)c(F)c3)nc(-c3cccc(CC#N)c3)c12` [SGI-7079], for which, on Flt1, the “Inhibition of Flt1” value is reported as “potent, low nM inhibition”. Also, the “Inhibition of Flt3” value at Flt3 is listed as “potent, low nM inhibition”. For the same compound, on Jak2, the “Inhibition of Jak2” value is “potent, low nM inhibition”. On MER, the “Inhibition of MER” value is “similarly as AXL”. Moreover, the “Inhibition of PDGFRβ” value on PDGFRβ is “potent, low nM inhibition”. Further, the “Inhibition of Ret” value at Ret is “potent, low nM inhibition”. In addition, the “Inhibition of Syk” value at Syk is “potent, low nM inhibition”. In addition, the “Inhibition of TrkA” value at TrkA is “potent, low nM inhibition”. Also, the “Inhibition of TrkB” value on TrkB is “potent, low nM inhibition”.

The values are drawn from patent US20140155397A1, “EMT SIGNATURES AND PREDICTIVE MARKERS AND METHOD OF USING THE SAME” (Board of Regents, priority 2011, published 2014).
